Experimental data published in patent publication US20010046498A1, “Chimeric prostate-homing peptides with pro-apoptotic activity” (priority 2000, published 2001).
Where two headings read alike, the source gives them in different places. Bridge positions count the residues as written; N and C are the ends. Square brackets hold non-standard residues; d marks the D form. Peptide text beside a SMILES is read from it.

What was measured:
[1] = tested on: human MDA-MD-435 breast carcinoma xenografts; assay: Treatment of nude mice bearing breast carcinoma xenografts; assay type: in vivo
Experimental: (§1) The activity of HPP-1 was tested in vivo using nude mice bearing human MDA-MD-435 breast carcinoma xenografts as follows. Briefly, MDA-MB-435 and C8161-derived tumor xenografts were established in 2 month-old female nude mice (Jackson Labs; Bar Harbor, Me.) as described in Arap et al., supra, 1998. After mice were anesthetized with a mixture of 2,2,2-tribromoethanol (Aldrich; Milwaukee, Wis.) and 2-methyl-butanol (Aldrich) prepared in distilled water, peptides were administered intravenously through the tail vein at a dose of 250 μg/week/mouse given slowly in a volume of 200 μl. Three-dimensional measurements of tumors were taken by caliper under anesthesia and used to calculate tumor volume (Pasqualini et al., supra, 1996).

[2] = tested on: MDA-MB-435 human breast carcinoma cells; assay: LC50 for MDA-MB-435 cells scored by apoptotic morphology; assay type: cell-based
Experimental: (§2) Briefly, dermal microvessel endothelial cells (DMECs) were grown in CADMEC Growth Media™ (Cell Applications, Inc.; San Diego, Calif.). Dermal microvessel endothelial cells were then cultured under three experimental conditions: proliferation, 30% confluency in a growth media supplemented with 500 ng/ml human recombinant vascular endothelial growth factor (VEGF; Pharmingen); no proliferation, 100% confluency in media formulated to maintain a monolayer; and cord formation, 60% confluency (required for induction) in media formulated to induce cord formation. The KS1767 and MDA-MB-435 cells were cultured as described in Arap et al., supra, 1998; Hernier et al., supra, 1994).
(§3) Percent viability and LC50 (Table 1) were determined by apoptotic morphology as described in Ellerby et al., J. Neurosci. 17:6165-6178 (1997). For the percent viability assays, dermal microvessel endothelial cells were treated with 60 μM HPP-1 or control peptide D(KLAKLAK)2. At the indicated time points, cell culture medium was aspirated from adherent cells, and the cells were gently washed once with PBS at 37° C. […] At least 500 cells were scored for a given time point in each experiment. Percent viability was calculated relative to untreated controls. The LC50 for monolayer, proliferation (60% confluency), and cord formation were scored at 72 hours.

[3] = tested on: tumors derived from the human melanoma cell line C8161; assay: Treatment of nude mice bearing C8161 melanoma xenografts; assay type: in vivo; conditions: similar experiments
Experimental: as §1

[4] = tested on: caspase activation in dermal microvessel endothelial cells; assay: Caspase activity (DEVD-pNA hydrolysis) in DMEC lysates; assay type: cell-based, human; conditions: proliferating DMECs
Experimental: Characteristic caspase-3 processing was measured in dermal microvessel endothelial cell lysates as described in Ellerby et al., supra, 1997. Briefly, aliquots of cell lysates (1 μl lysate, 8-15 mg/ml) were added to 100 μM N-acetyl-Asp-Glu-Val-Asp-pNA (DEVD-pNA; BioMol; 100 μl, 100 mM HEPES, 10% sucrose, 0.1% CHAPS, 1 mM DTT, pH 7.0). Hydrolysis of DEVD-PNA was monitored spectrophotometrically (400 nm) at 25° C.

[5] = tested on: dermal microvessel endothelial cells; assay: Mitochondrial morphology of proliferating DMECs (MitoTracker Red / DAPI); assay type: cell-based, human; conditions: 60 μM peptide
Experimental: Mitochondrial morphology of dermal microvessel endothelial cells was assessed in proliferating cells after treatment with 60 μM HPP-1, […]-GG-D(KLAKLAK)2 or untargeted D(KLAKLAK)2 as follows. Dermal microvessel endothelial cells were stained after 24 and 72 hours treatment with peptide by incubation for 30 min at 37° C. with 100 nM mitochondrial stain MitoTracker Red™ (Molecular Probes, Inc., Eugene Oreg.) and 500 nM of the nuclear stain DAPI (Molecular Probes, Inc.). Mitochondria were subsequently visualized using fluorescence microscopy (100×) under an inverted microscope using a triple wavelength filter set (Nikon).

[6] = tested on: KS1767 cells; assay: LC50 for KS1767 cells scored by apoptotic morphology; assay type: cell-based; conditions: proliferating KS1767 cells; read-out: LC50 KS1767 Prolif.
Experimental: as §2, §3

[7] = tested on: normal human dermal microvessel endothelial cells (DMECs); assay type: cell-based; design: dose or concentration left out as unconfirmed; conditions: proliferation or cord formation
[8] = tested on: normal human dermal microvessel endothelial cells (DMECs); assay: in vitro; assay type: cell-based; conditions: for CC50: scored at 72 hours
Experimental: (§4) The effect of HPP-1 was assayed on normal human dermal microvessel endothelial cells (DMECs) under the angiogenic conditions of proliferation and cord formation. In addition, the effect of HPP-1 was assayed under the angiostatic condition of a monolayer maintained at 100% confluency (as described below).
as §2
as §3, with “C. Subsequently, a 20-fold dilution of the dye mixture (100 μg/ml acridine orange and 100 μg/ml ethidium bromide) in PBS was gently pipetted on the cells, which were viewed on an inverted microscope (Nikon TE 300).” for “C.”

[9] = in vitro; assay type: cell-based; conditions: human; monolayer at 100% confluency; scored at 72 hours; means of three independent experiments; read-out: LC50 DMEC Angiostatic
Experimental: as §4, §2
as §3, with “C. Subsequently, a 20-fold dilution of the dye mixture (100 μg/ml acridine orange and 100 μg/ml ethidium bromide) in PBS was gently pipetted on the cells, which were viewed on an inverted microscope (Nikon TE 300).” for “C.”

[10] = tested on: tumor; assay: Competition of GSL phage homing by free peptide; design: species or system mice; conditions: mouse, in vivo
From the text: A third motif, GSL (glycine-serine-leucine), also was identified following in vivo panning in mice bearing breast carcinoma, malignant melanoma or Kaposi's sarcoma. Homing of phage expressing the GSL peptide, CGSLVRC (SEQ ID NO: 5), was inhibited by coadministration of the free CGSLVRC (SEQ ID NO: 5) peptide. Like the RGD and NGR peptides, phage expressing GSL peptides also bound to blood vessels of tumors. In view of the identification of the conserved RGD, NGR and GSL motifs present in tumor homing peptides, as disclosed herein, it will be recognized that peptides containing such motifs can be useful as tumor homing peptides and, in particular, for forming homing pro-apoptotic conjugates that can selectively deliver an […] peptide to a tumor.

[11] = 250 μg/week/mouse intravenously

Molecule	histopathological analysis of tumors [1, 11]	survival versus control groups [1, 11]	tumor volume versus controls [1, 11]	apoptotic cell death in tumors ([1]; histopathological analysis)	toxicity to MDA-MB-435 cells relative to KS1767 cells and angiogenic DMECs [2]	CC50 ([2]; proliferating MDA-MB-435 cells, read-out: LC50 MDA-MB-435 Prolif.) [µM]	effect against C8161 melanoma tumors [3]	apoptotic cell death by caspase activity [4]	morphological indicators of apoptosis (nuclear condensation and fragmentation) ([5]; 72 hours)	cells with altered mitochondrial morphology ([5]; proliferating cells, before the cells rounded-up)	CC50 [6] [µM]	percent viability with time relative to untreated controls [7]	LC50 for proliferating or migrating DMECs relative to LC50 for angiostatic DMECs ([8]; angiogenic versus angiostatic conditions)	CC50 ([8]; cord formation, read-out: LC50 DMEC Angiogenic Cord Form) [µM]	CC50 ([8]; proliferation with VEGF, read-out: LC50 DMEC Angiogenic Prolif.) [µM]	CC50 at 72 h [9] [µM]	effect of coadministered free peptide on homing of CGSLVRC phage [10]
CC(C)C[C@@H](NC(=O)[C@@H](CCCCN)NC(=O)CNC(=O)CNC(=O)[C@@H]1CSSC[C@H](N)C(=O)N[C@@H](CC(N)=O)C(=O)NCC(=O)N[C@@H](CCCNC(=N)N)C(=O)N1)C(=O)N[C@H](C)C(=O)N[C@H](CCCCN)C(=O)N[C@H](CC(C)C)C(=O)N[C@H](C)C(=O)N[C@H](CCCCN)C(=O)N[C@H](CCCCN)C(=O)N[C@H](CC(C)C)C(=O)N[C@H](C)C(=O)N[C@H](CCCCN)C(=O)N[C@H](CC(C)C)C(=O)N[C@H](C)C(=O)N[C@H](CCCCN)C(=O)O [HPP-1, CNGRC-GG-D(KLAKLAK)2] (H-CNGRCGG[dK][dL][dA][dK][dL][dA][dK][dK][dL][dA][dK][dL][dA][dK]-OH; disulfide 1-5)	pronounced destruction of tumor architecture and widespread cell death	survival was longer	smaller, on average by one order of magnitude	about 50%	less toxic to MDA-MB-435 human breast carcinoma cells by approximately one order of magnitude	415	effective	Apoptotic cell death was confirmed	exhibited the classic morphological indicators of apoptosis	approximately 80%	42	decrease in percent viability with time	an order of magnitude lower	34	51	481	
CGSLVRC [GSL tumor homing peptide]																	inhibited
